Consider 24 compounds from publication PMC6179059, “Pharmacophore-based discovery of 2-(phenylamino)aceto-hydrazides as potent eosinophil peroxidase (EPO) inhibitors” (Journal of Enzyme Inhibition and Medicinal Chemistry, 2018).

Assay [1] concerns the target T1, eosinophil peroxidase (EPO) (Homo sapiens, UniProt P11678).
T1 construct: Eosinophil peroxidase was purified from human white blood cells to a purity index (A413/A280) of at least 1.0; from tissue; host or cells: human white blood cells
Briefly: Inhibition of EPO-mediated bromination, monochlorodimedone (MCD) assay. The assay is classed as biochemical. As for the experimental part: Eosinophil peroxidase was purified from human white blood cells to a purity index (A413/A280) of at least 1.0 as described by Olsen and Little[27]. Its concentration was calculated using ε413 nm 110 000 M^−1 cm−1[28] Hydrogen peroxide, obtained as a 30% solution from Sigma Chemical Co., was diluted and the concentration determined by the absorbance measurement at 240 nm where the extinction coefficient is 39.4 M^−1 cm−1[29]. The other chemicals were also purchased from Sigma Chemical Co. at the highest grade available.
Halogenation activity was measured spectrophotometrically (Hitachi U-3000) using the monochlorodimedone (MCD) assay. MCD (100 µM) was dissolved in 100 mM phosphate buffer, pH 7.0 containing either bromide (100 mM) or chloride (100 mM) and 20 nM EPO. Upon addition of 100 µM H2O2 MCD was converted into dibromodimedone. […] If necessary the inhibitor stock solutions were prepared in dimethylsulfoxide (DMSO) and stored in dark flasks. Dilution was performed with 100 mM phosphate buffer, pH 7.0, to a final DMSO concentration of maximal 2% (v/v) in all assays. […] The inhibitor concentration that inhibited eosinophil peroxidase-dependent oxidation of MCD by 50% (IC50) was determined by fitting a rectangular hyperbola to the dose-response curve using nonlinear regression (see supplemental information A). All measurements were made in triplicate.
The 277 selected compounds were tested for inhibition. Monochlorodimedon (MCD) was used to monitor inhibition of EPO-mediated bromination. It turned out that certain compounds such as hydrazides are able to inhibit the EPO. Table 3 lists the IC50 values of four different 4-chlorophenyl derivatives of hydrazides and acetic acid. […] It is apparent that a free terminal amino group, which could act as an […] is essential for a strong inhibition, additional to steric and/or electrochemical properties of these compounds.
Supplementary Figure S1: IC 50 plots of inhibition of EPO halogenation activity. Figure A- […]
20 nM EPO and 200 µM hydrogen peroxide. Reactions were carried out in 100 mM phosphate buffer, pH 7, at 25 °C, Data are means of triplicate experiments. The inhibitory effect of each inhibitor was measured by determining the concentration at which it inhibited oxidation of MCD by 50% (IC50).

A further assay has as its system T2, EPO Compound I.
T2 construct: Eosinophil peroxidase was purified from human white blood cells to a purity index (A413/A280) of at least 1.0; from tissue; host or cells: human white blood cells
The assay can be described thus: Sequential-mixing stopped-flow: reaction of EPO Compound I with inhibitors. Format: biochemical, human. Conditions: for apparent second-order rate constant for Compound I reduction (k3): 100 mM phosphate buffer, pH 7.0, 25 °C; for type of inhibition (reversible / irreversible): concluded from pre-steady-state kinetics. Here is the method: (§1) The sequential stopped-flow apparatus (model SX-18 MV) and the associated computer system were from Applied Photophysics (UK). Because of the inherent instability of Compound I of EPO, the sequential stopped-flow (multi-mixing) technique was used for determination of rate of the reaction of Compound I with different inhibitors. Similar to bovine LPO, human EPO Compound I could be formed with equimolar concentrations of H2O2. In a typical experiment, 2 µM EPO was premixed with 2 µM H2O2 in the aging loop. After 100 ms of delay, the formed Compound I was mixed with increasing concentrations of different inhibitors. Formation and reduction of Compound II by compound 10 was investigated by following the biphasic time trace at 423 nm, where the transition of Compound I to Compound II and further to the […] can be followed. The kinetic traces were fitted using the double-exponential equation of the Applied Photophysics software. At least three determinations (2000 data points) of pseudo-first-order rate constants (kobs) from the first phase of the reaction were performed for each substrate concentration and the mean value was used in the calculation of the second-order rate constants, which were calculated from the slope of the line defined by a plot of kobs versus substrate concentration. Compound 11 was investigated by following the biphasic time traces at 430 nm the maximum absorbance of Compound II. All reactions were followed both at single wavelengths as well as with a diode-array detector. Polychromatic data were analysed with Pro-Kineticist from Applied Photophysics. The program simultaneously fits the kinetic traces at all wavelengths to the proposed reaction mechanism and simulates the spectra of all reactant, product and intermediate species as well as their time-dependent distribution on the reaction coordinate. All measurements were done in 100 mM phosphate buffer, pH 7.0, at 25 °C with a minimum of three repeats.
In order to determine the mechanism of inhibition of EPO with aceto-hydrazide, acetic acid and thioacetic acid derivatives, a pre-steady-state kinetic study was performed with sequential-mixing stopped-flow spectroscopy. Three redox intermediates are relevant in the enzymology of EPO, namely Compound I, Compound II and Compound III (Figure 3). […] Alternatively, Compound I can also be reduced back by two one-electron reduction steps via Compound II (k3 and k4), Figure 3). The ferric enzyme can be reduced to ferrous enzyme (k5). Compound III can be formed either from ferric enzyme by reversible binding of superoxide (O2^–) (k6) or from the ferrous enzyme by reversible binding of dioxygen (O2) (k7). […]
(§2) Firstly we investigated compound 10. […] Compound I reduction with compound 10 was measured at 423 nm. […]

The next assay relates to T3, EPO Compound II.
T3 construct: Eosinophil peroxidase was purified from human white blood cells to a purity index (A413/A280) of at least 1.0; from tissue; host or cells: human white blood cells
Briefly: Sequential-mixing stopped-flow: reaction/transition of EPO Compound II with inhibitors. Conditions: pH 7.0, 25 °C; for apparent second-order rate constant for Compound II reduction (k4): 100 mM phosphate buffer. Format: biochemical, human. As for the experimental part: as §1, with “repeats. […]” for “repeats.”
as §2

Assay [2] deals with dextran sulfate-induced model of ulcerative colitis. Set-up: method as in PMID 15100311. The conditions noted are these: wild-type mice; cited from earlier work.
The mark [3] stands for this setting: training and test set compounds of the pharmacophore model, read-out: EPO IC50.
Where [4] appears, read: as stated in text (abstract, conclusion), read-out: IC50.
Setting [5] is: Table 3, 20 nM EPO, 100 mM bromide, 100 µM H2O2, pH 7.0, read-out: IC50 value.
Setting [6] is: Table 4, 20 nM EPO, 100 mM bromide, 100 µM H2O2, pH 7.0, read-out: IC50 value.

Read-outs that look alike come from different tables or passages of the source.

T1 sequence (P11678 251-715 limits assumed): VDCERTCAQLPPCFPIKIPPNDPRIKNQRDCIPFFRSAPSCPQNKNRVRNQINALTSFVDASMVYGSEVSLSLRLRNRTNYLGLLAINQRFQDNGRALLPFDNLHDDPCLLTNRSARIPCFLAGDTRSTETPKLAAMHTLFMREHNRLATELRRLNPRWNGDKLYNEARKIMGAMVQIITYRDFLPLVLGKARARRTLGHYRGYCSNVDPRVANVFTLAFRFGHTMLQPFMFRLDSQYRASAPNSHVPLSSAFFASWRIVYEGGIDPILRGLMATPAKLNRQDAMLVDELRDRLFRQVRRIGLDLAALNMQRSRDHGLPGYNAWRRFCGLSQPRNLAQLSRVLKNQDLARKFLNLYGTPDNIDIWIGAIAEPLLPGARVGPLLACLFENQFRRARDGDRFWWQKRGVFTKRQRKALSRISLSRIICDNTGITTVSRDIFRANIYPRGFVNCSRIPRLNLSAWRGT
T1 sequence (P11678 140-250 limits assumed): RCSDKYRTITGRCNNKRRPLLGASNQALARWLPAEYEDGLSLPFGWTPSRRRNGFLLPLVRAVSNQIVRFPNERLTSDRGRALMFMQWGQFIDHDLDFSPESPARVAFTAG

With `NNC(=O)c1nn(-c2ccccc2C(F)(F)F)cc1O` [Compound 1, reference compound], in assay [1] (setting [3]), the IC50 (usually the concentration that inhibits the measured activity by half) worked out at 0.05 µM. Turning to `Cn1c(=O)[nH]c(=O)c2c1nc(NCCCO)n2CCO` [Compound 2, reference compound], the IC50 in assay [1] (setting [3]) turned out to be 0.12 µM. Same read-out and setting: with `NNC(=O)c1ccccc1O` [Compound 3, reference compound] the figure was 0.075 µM.

In the case of `NNC(=O)c1nn(-c2ccccc2)cc1O` [Compound 4, reference compound], the IC50 in assay [1] (setting [3]) worked out at 0.42 µM. In the case of `NNc1cc(Cl)ccc1[N+](=O)[O-]` [Compound 5, reference compound], the IC50 in assay [1] (setting [3]) was found to be 0.77 µM. Take `CC/N=c1/scc(-c2ccc(O)c(C(N)=O)c2)n1CC` [Compound 6, reference compound]: in assay [1] (setting [3]), the IC50 came out at 0.98 µM.

As to `C=CCNc1nc2c(c(=O)[nH]c(=O)n2C)n1CC(O)CO` (stereo not shown) [Compound 7, reference compound], in assay [1] (setting [3]), the IC50 amounted to 1.05 µM. For `COc1ccc2[nH]cc(CCNC(C)=O)c2c1` [Compound 8, reference compound], in assay [1] (setting [3]), the IC50 worked out at 2.9 µM.

`NNC(=O)c1ccc(O)cc1O` [Compound 9, reference compound]: in assay [1] (setting [3]), the IC50 came to 3.52 µM. Take `NNC(=O)CNc1ccc(Cl)cc1` [Compound 10, 2-[(4-chlorophenyl)amino]-acetohydrazide]: the IC50 in assay [1] (setting [4]) is 0.021 µM. Moreover, in the assay on EPO Compound I, the “apparent second-order rate constant for Compound I reduction (k3)” value stood at 9.2e+06 M⁻¹ s⁻¹ and the “type of inhibition (reversible / irreversible)” value is “irreversible inhibitor”. In addition, the “rate constant for transition Compound II - Compound III” value with EPO Compound II (independent of inhibitor concentration) is around 1.2 s⁻¹. As to `O=C(O)CNc1ccc(Cl)cc1` [Compound 11, 2-[(4-chlorophenyl)amino]-acetic acid], in assay [1] (setting [5]), the half-maximal inhibitory concentration (IC50) is 0.205 ± 0.03 µM. For the same compound, in the assay on EPO Compound I, the “apparent second-order rate constant for Compound I reduction (k3)” value is 6.9e+06 M⁻¹ s⁻¹ and the “type of inhibition (reversible / irreversible)” value is “reversible inhibitor”. For the same compound, in the assay with EPO Compound II, the “apparent second-order rate constant for Compound II reduction (k4)” value was determined as 11000 M⁻¹ s⁻¹.

For the compound `NNC(=O)CSc1ccc(Cl)cc1` [Compound 12, 2-(4-chlorophenyl) thio-acetohydrazide], in the assay with EPO Compound II, the “apparent second-order rate constant for Compound II reduction (k4)” value came out at 140000 M⁻¹ s⁻¹. With `NNC(=O)COc1ccc(Cl)cc1` [Compound 13, 2-(4-chlorophenoxy)-aceto-hydrazide], the IC50 in assay [1] (setting [5]) is 4.9 ± 0.1 µM.

On to `NNC(=O)CNc1ccccc1` [Compound 14, PAAH], for which the IC50 in assay [1] (setting [6]) came out at 2.9 ± 0.1 µM. Regarding `Cc1ccc(NCC(=O)NN)cc1` [Compound 15, 4-Methyl-PAAH], the IC50 in assay [1] (setting [6]) amounted to 2.27 ± 0.09 µM. As for `NNC(=O)CNc1ccc(F)cc1` [Compound 16, 4-Fluoro-PAAH], the IC50 in assay [1] (setting [6]) worked out at 0.172 ± 0.03 µM.

Turning to `NNC(=O)CNc1ccc(Br)cc1` [Compound 17, 4-Bromo-PAAH], the IC50 in assay [1] (setting [6]) was 0.823 ± 0.08 µM.

For `NNC(=O)CNc1ccc(I)cc1` [Compound 18, 4-Iodo-PAAH], the concentration for half-maximal inhibition (IC50) in assay [1] (setting [6]) is 0.29 ± 0.02 µM. As for `NNC(=O)CNc1ccccc1F` [Compound 19, 2-[(2-fluorophenyl)amino]-aceto-hydrazide], the half-maximal inhibitory concentration (IC50) in assay [1] (setting [6]) stood at 0.01 ± 0.005 µM; in assay [1] (setting [4]), 0.01 µM. Turning to `NNC(=O)CNc1ccc(F)cc1F` [Compound 20, 2,4-di Fluoro-PAAH], the IC50 in assay [1] (setting [6]) came to 0.02 ± 0.006 µM. Take `NNC(=O)CNc1ccc(F)c(Cl)c1` [Compound 21, 3-Chloro-4-fluoro-PAAH]: the IC50 in assay [1] (setting [6]) turned out to be 0.034 ± 0.005 µM. In the case of `NNC(=O)CNc1ccccc1Cl` [Compound 22, 2-Chloro-PAAH], the IC50 in assay [1] (setting [6]) is 0.91 ± 0.04 µM. Consider `NNC(=O)CNc1cccc(Br)c1` [Compound 23, 3-Bromo-PAAH], for which the IC50 in assay [1] (setting [6]) turned out to be 0.823 ± 0.06 µM. Consider `Oc1cccc(O)c1` [resorcinol], for which the “disease activity parameters (weight loss, colon shrinkage, colonic bleeding)” value in assay [2] is given as “diminished”.
